{
  "source": "patent US7604797B2",
  "about": "“Compositions and methods for treating burns” (BioMechanisms Inc., priority 2003, dated 2009)",
  "origin": "cited, not measured here",
  "key": {"malignant tumors": {"system": "malignant tumors", "conditions": "for Tumor response in patients: acute lymphocytic leukemia, Burkitt's lymphoma, breast carcinoma, mycosis fungoides, epidermoid head and neck cancer, osteogenic sarcoma; for Toxicity of chemotherapy: partly related to polyglutamate formation"}, "[1]": {"system": "gram-positive and gram-negative organisms, fungi", "conditions": "topical use on burns"}},
  "note": "Read-outs that look alike come from different tables or passages of the source. Where a SMILES comes first, the peptide text is derived from it. Bridges are numbered along the chain shown (N, C = ends). [ ]: non-standard residue; d: D form. The star is where a group is joined. Ileψ(thiazoline)Cys = CC[C@H](C)[C@H](N)C1=N[C@H](C(=O)*)CS1; dOrn = NCCC[C@@H](N)C(=O)O",
  "data": [
    {"compound": "Nc1nc(N)c2nc(CNc3ccc(C(=O)NC(CCC(=O)O)C(=O)O)cc3)cnc2n1", "note": "(stereo not shown) [AMT, 4-amino-4-deoxy-pteroylglutamic acid]", "values": [
      {"measurement": "Tumor response in patients", "setting": "malignant tumors", "value": "good to excellent tumor response"},
      {"measurement": "Toxicity of chemotherapy", "setting": "malignant tumors", "value": "a variety of toxicities"}
    ]},
    {"compound": "CC[C@H](C)[C@H](N)C1=N[C@H](C(=O)N[C@@H](CC(C)C)C(=O)N[C@H](CCC(=O)O)C(=O)N[C@H](C(=O)N[C@H]2CCCCNC(=O)[C@H](CC(N)=O)NC(=O)[C@@H](CC(=O)O)NC(=O)[C@H](Cc3cnc[nH]3)NC(=O)[C@@H](Cc3ccccc3)NC(=O)[C@H]([C@@H](C)CC)NC(=O)[C@@H](CCCN)NC2=O)[C@@H](C)CC)CS1", "note": "[Bacitracin] ({Ileψ(thiazoline)Cys}-L[dE]IK[dOrn]I[dF]H[dD]N; lactam 4-C)", "values": [
      {"measurement": "Benefits: effectiveness against microorganisms", "setting": "[1]", "value": "Effective against gram-"},
      {"measurement": "Toxicity and adverse effects in use", "setting": "burn patients; in vivo", "value": "Safe, non-toxic"}
    ]},
    {"compound": "CN(Cc1cnc2nc(N)nc(N)c2n1)c1ccc(C(=O)NC(CCC(=O)O)C(=O)O)cc1", "note": "(stereo not shown) [MTX, 4-amino-4-deoxy-N^10-methyl-pteroylglutamic acid]", "values": [
      {"measurement": "Tumor response in patients", "setting": "malignant tumors", "value": "good to excellent tumor response"},
      {"measurement": "Toxicity of chemotherapy", "setting": "malignant tumors", "value": "a variety of toxicities"}
    ]},
    {"compound": "C[C@@H]1[C@H](O)[C@@H](C)/C=C/C=C/CC/C=C/C=C/C=C/C=C/C(O[C@H]2O[C@H](C)[C@@H](O)[C@H](N)[C@@H]2O)CC2O[C@](O)(CC(O)C(O)CCC(O)CC(O)CC(O)CC(=O)O[C@H]1C)CC(O)C2C(=O)O", "note": "(stereo partly shown) [Nystatin]", "values": [
      {"measurement": "Benefits: effectiveness against microorganisms", "setting": "[1]", "value": "Effective against the most"}
    ]},
    {"compound": "Neomycin", "values": [
      {"measurement": "Benefits: effectiveness against microorganisms", "setting": "[1]", "value": "Particularly effective"}
    ]},
    {"compound": "Polymyxin B Sulfate", "values": [
      {"measurement": "Benefits: effectiveness against microorganisms", "setting": "[1]", "value": "Effective agains gram-"},
      {"measurement": "Toxicity and adverse effects in use", "setting": "burn patients; topical use on burns", "value": "microorganisms. Non-toxic"}
    ]}
  ]
}
